From PubChem BioAssay AID248 (DTP/NCI, 2004)
Where “and” joins values, the source holds several entries; their conditions need not be identical. Identical values can stand only once. Toxic doses and inconclusive results are not listed. No stated cut-off is given here; in the data, active means T/C of 150% or more; inactive means T/C below 125%.

Test system: L1210 leukemia ip in BDF1 mice, survival T/C
Assay: NCI In Vivo Anticancer Drug Screen. Data for tumor model L1210 Leukemia (intraperitoneal) in B6D2F1 (BDF1) mice
Conditions: endpoint: mean survival time, higher = longer survival
Method in brief: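 Each compound was tested against a transplantable tumor grown in mice. The endpoint was survival, with treated animals benchmarked against vehicle controls as a simple ratio.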

[1] = dose: 100.0 mg/kg/injection, schedule: Q01DX009 (ip), vehicle: saline with Tween-80
[2] = dose: 400.0 mg/kg/injection, schedule: Q01DX009 (ip), vehicle: saline with Tween-80
[3] = dose: 50.0 mg/kg/injection, schedule: Q04DX003 (ip), vehicle: Klucel (hydroxypropylcellulose) (HPC)
[4] = dose: 100.0 mg/kg/injection, schedule: Q04DX003 (ip), vehicle: Klucel (hydroxypropylcellulose) (HPC)
[5] = dose: 200.0 mg/kg/injection, schedule: Q04DX003 (ip), vehicle: Klucel (hydroxypropylcellulose) (HPC)
[6] = dose: 100.0 mg/kg/injection, schedule: Q04DX003 (ip), vehicle: saline with Tween-80
[7] = dose: 200.0 mg/kg/injection, schedule: Q04DX003 (ip), vehicle: saline with Tween-80
[8] = dose: 400.0 mg/kg/injection, schedule: Q04DX003 (ip), vehicle: saline with Tween-80
[9] = dose: 100.0 mg/kg/injection, schedule: Q01DX001 (ip), vehicle: saline
[10] = dose: 100.0 mg/kg/injection, schedule: Q04DX003 (ip), vehicle: saline
[11] = dose: 200.0 mg/kg/injection, schedule: Q01DX001 (ip), vehicle: saline
[12] = dose: 400.0 mg/kg/injection, schedule: Q01DX001 (ip), vehicle: saline
[13] = dose: 100.0 mg/kg/injection, schedule: Q01DX009 (ip), vehicle: Klucel (hydroxypropylcellulose) (HPC)
[14] = dose: 200.0 mg/kg/injection, schedule: Q01DX009 (ip), vehicle: Klucel (hydroxypropylcellulose) (HPC)
[15] = dose: 400.0 mg/kg/injection, schedule: Q01DX009 (ip), vehicle: Klucel (hydroxypropylcellulose) (HPC)
[16] = dose: 200.0 mg/kg/injection, schedule: Q01DX009 (ip), vehicle: saline with Tween-80
[17] = dose: 100.0 mg/kg/injection, schedule: Q01DX009 (ip), vehicle: saline
[18] = dose: 400.0 mg/kg/injection, schedule: Q04DX002 (ip), vehicle: saline with Tween-80

Measured: T/C

CC1=C2CC(C(C)(C)O)CCC2(C)CC/C1=N\NC(N)=S (stereo not drawn)
inactive: [1] 98 % of control | [2] 86 % of control

O=C(CCl)Nc1c(Cl)cc(Cl)cc1Cl
inactive: [3] 97 % of control | dose: 100.0 mg/kg/injection, schedule: Q01DX001 (ip), vehicle: Klucel (hydroxypropylcellulose) (HPC) 103 % of control | [4] 90 % of control | dose: 200.0 mg/kg/injection, schedule: Q01DX001 (ip), vehicle: Klucel (hydroxypropylcellulose) (HPC) 98 % of control | [5] 93 % of control | dose: 400.0 mg/kg/injection, schedule: Q01DX001 (ip), vehicle: Klucel (hydroxypropylcellulose) (HPC) 103 % of control

CCOC(=O)Nc1nccs1
inactive: [6] 105 % of control | [7] 96 % of control

Cc1ccc(S(=O)(=O)Nc2cccc(C(=O)O)c2)cc1
inactive: dose: 100.0 mg/kg/injection, schedule: Q01DX001 (ip), vehicle: other 98 % of control | [6] 98 % of control | dose: 200.0 mg/kg/injection, schedule: Q01DX001 (ip), vehicle: other 104 % of control | [7] 104 % of control | dose: 400.0 mg/kg/injection, schedule: Q01DX001 (ip), vehicle: other 102 % of control | [8] 98 % of control

C/C(CCO)=N\NC(N)=S
inactive: dose: 50.0 mg/kg/injection, schedule: Q01DX001 (ip), vehicle: saline 98 % of control | [9] 98 % of control | [10] 100 % of control | [11] 92 % of control | dose: 200.0 mg/kg/injection, schedule: Q04DX003 (ip), vehicle: saline 90 % of control | [12] 101 % of control | dose: 400.0 mg/kg/injection, schedule: Q04DX003 (ip), vehicle: saline 88 % of control

Cc1[nH]c(N)nc(=S)c1CCC(=O)O
inactive: [13] 96 % of control | [4] 98 % of control | [14] 96 % of control | [5] 93 % of control | [15] 98 % of control | dose: 400.0 mg/kg/injection, schedule: Q04DX003 (ip), vehicle: Klucel (hydroxypropylcellulose) (HPC) 90 % of control

O=C(N1CCC2(CC1)SSC1(CCN(C(=O)C(F)(F)F)CC1)S2)C(F)(F)F
inactive: [1] 97 % of control | [16] 97 % of control | [2] 95 % of control

C=CCSC(=S)SCc1cccc(Cl)c1
inactive: [17] 101 % of control | dose: 100.0 mg/kg/injection, schedule: Q04DX002 (ip), vehicle: saline 100 % of control | dose: 200.0 mg/kg/injection, schedule: Q01DX009 (ip), vehicle: saline 101 % of control | dose: 200.0 mg/kg/injection, schedule: Q04DX002 (ip), vehicle: saline 100 % of control | dose: 400.0 mg/kg/injection, schedule: Q01DX009 (ip), vehicle: saline 99 % of control | dose: 400.0 mg/kg/injection, schedule: Q04DX002 (ip), vehicle: saline 97 % of control

O=[N+]([O-])c1ccc(N=C=S)cc1
inactive: dose: 25.0 mg/kg/injection, schedule: Q04DX003 (ip), vehicle: Klucel (hydroxypropylcellulose) (HPC) 95 % of control | [3] 95 % of control | [4] 93 % of control

O=C(NCCCl)NC1OCC(O)C(O)C1O (stereo not drawn)
inactive: [9] 112 % of control | [11] 97 % of control | [12] 103 % of control

Cc1ncc2n1C=CN(C(=O)c1ccc([N+](=O)[O-])cc1)C2O (stereo not drawn)
inactive: dose: 100.0 mg/kg/injection, schedule: Q01DX009 (ip), vehicle: water 98 % of control | dose: 200.0 mg/kg/injection, schedule: Q01DX009 (ip), vehicle: water 98 % of control | dose: 400.0 mg/kg/injection, schedule: Q01DX009 (ip), vehicle: water 93 % of control

FC(F)C(F)(F)C(F)(F)C(F)(F)C(F)(F)C(F)(F)COc1nc(OCC(F)(F)C(F)(F)C(F)(F)C(F)(F)C(F)(F)C(F)F)nc(OCC(F)(F)C(F)(F)C(F)(F)C(F)(F)C(F)(F)C(F)F)n1
inactive: dose: 25.6 mg/kg/injection, schedule: Q04DX002 (ip), vehicle: saline with Tween-80 97 % of control | dose: 50.0 mg/kg/injection, schedule: Q01DX009 (ip), vehicle: saline with Tween-80 89 % of control | dose: 64.0 mg/kg/injection, schedule: Q04DX002 (ip), vehicle: saline with Tween-80 91 % of control | [1] 92 % of control | [6] 91 % of control | dose: 160.0 mg/kg/injection, schedule: Q04DX002 (ip), vehicle: saline with Tween-80 97 % of control | [16] 90 % of control | [7] 86 % of control | [18] 91 % of control | [8] 87 % of control

O=C(Nc1ccccc1C(=O)N/N=C/c1ccccc1Cl)c1ccccc1Cl
inactive: [13] 90 % of control | [14] 103 % of control | [15] 86 % of control

CN(C)CCC1CCCCN1 (stereo not drawn)
inactive: dose: 25.0 mg/kg/injection, schedule: Q01DX009 (ip), vehicle: saline 95 % of control | dose: 25.0 mg/kg/injection, schedule: Q04DX003 (ip), vehicle: saline 103 % of control | dose: 50.0 mg/kg/injection, schedule: Q01DX009 (ip), vehicle: saline 95 % of control | dose: 50.0 mg/kg/injection, schedule: Q04DX003 (ip), vehicle: saline 101 % of control | [17] 104 % of control | [10] 99 % of control and 100 % of control

Cc1c(CNc2ccc(Cl)c(C(=O)NC(CC(=O)O)C(=O)O)c2)ccc2nc(N)nc(N)c12 (stereo not drawn)
inactive: dose: 1.5 mg/kg/injection, schedule: Q01DX009 (ip), vehicle: Klucel (hydroxypropylcellulose) (HPC) 110 % of control | dose: 3.0 mg/kg/injection, schedule: Q01DX009 (ip), vehicle: Klucel (hydroxypropylcellulose) (HPC) 115 % of control | dose: 3.13 mg/kg/injection, schedule: Q01DX009 (ip), vehicle: Klucel (hydroxypropylcellulose) (HPC) 120 % of control | dose: 6.0 mg/kg/injection, schedule: Q01DX009 (ip), vehicle: Klucel (hydroxypropylcellulose) (HPC) 110 % of control and 92 % of control | [13] 97 % of control and 100 % of control | dose: 267.0 mg/kg/injection, schedule: Q01DX001 (ip), vehicle: saline 122 % of control
active: dose: 12.5 mg/kg/injection, schedule: Q01DX009 (ip), vehicle: Klucel (hydroxypropylcellulose) (HPC) 160 % of control | dose: 50.0 mg/kg/injection, schedule: Q01DX009 (ip), vehicle: Klucel (hydroxypropylcellulose) (HPC) 168 % of control | [17] 162 % of control

CCC[Si](C)(C)CCC
inactive: [9] 100 % of control | [11] 98 % of control | [12] 100 % of control

CCCCCCCCCCCCCCC(CCCCCCCCCCCCCC)C1CCCCC1
inactive: dose: 100.0 mg/kg/injection, schedule: Q01DX001 (ip), vehicle: saline with Tween-80 92 % of control | dose: 200.0 mg/kg/injection, schedule: Q01DX001 (ip), vehicle: saline with Tween-80 95 % of control | dose: 400.0 mg/kg/injection, schedule: Q01DX001 (ip), vehicle: saline with Tween-80 94 % of control

On1nnc2ccc(Cl)cc21
inactive: [6] 95 % of control | [7] 95 % of control | [8] 102 % of control

CCN(CC)CCOc1ccc(-c2ccccc2)cc1
active: [6] 277 % of control
inactive: dose: 50.0 mg/kg/injection, schedule: Q04DX003 (ip), vehicle: saline with Tween-80 98 % of control

CN(C)CCN(C)C(=O)C(O)(c1ccccc1)c1ccccc1
inactive: dose: 100.0 mg/kg/injection, schedule: Q04DX002 (ip), vehicle: saline with Tween-80 97 % of control | dose: 200.0 mg/kg/injection, schedule: Q04DX002 (ip), vehicle: saline with Tween-80 97 % of control | [18] 97 % of control

O=C1OC(=O)C2C3C=CC(C12)C1C3C1N1C(=O)CCC1=O (stereo not drawn)
inactive: dose: 50.0 mg/kg/injection, schedule: Q04DX003 (ip), vehicle: acetone 96 % of control | dose: 100.0 mg/kg/injection, schedule: Q04DX003 (ip), vehicle: acetone 88 % of control | dose: 200.0 mg/kg/injection, schedule: Q04DX003 (ip), vehicle: acetone 95 % of control

COC(=O)C1(C(=O)OC)CCC=CC1=O
inactive: [1] 107 % of control | [6] 97 % of control | [16] 93 % of control | [7] 101 % of control | [2] 109 % of control | [8] 106 % of control
